Consider 32 compounds from patent publication US20110178062A1, “INDOLE AND BENZOTHIOPHENE COMPOUNDS AS MODULATORS OF THE HISTAMINE H3 RECEPTOR” (priority 2007, published 2011).

Test [1] concerns the target T1, cloned human H3 receptors, stably expressed in SK-N-MC cells (Homo sapiens, UniProt Q9Y5N1).
T1 construct: expressed in transfected cells; host or cells: SK-N-MC cells
The test is described as follows: H3 Receptor Binding (Human). The conditions noted are these: average of the results obtained. The protocol:
Binding of compounds to the cloned human H3 receptors, stably expressed in SK-N-MC cells, was performed as described by Barbier, A. J. et al. (Br. J. Pharmacol. 2004, 143(5), 649-661). Data for compounds tested in this assay are presented in Table 1 as an average of the results obtained.

Test [2] has as its target T2, human H3 receptor (Homo sapiens, UniProt Q9Y5N1).
T2 construct: expressed in transfected cells; host or cells: SK-N-MC cells
The test is described as follows: Cyclic AMP Accumulation, SK-N-MC reporter cells (human H3). The test is classed as cell-based. The settings on record: SK-N-MC cells expressing reporter construct and human H3 receptor; read-out: Human pA2 (converted). An excerpt: Sublines of SK-N-MC cells were created that expressed a reporter construct and either the human or rat H3 receptor. The pA2 values were obtained as described by Barbier et al. (2004). Data for compounds tested in these assays are presented in Table 3, as an average of the results obtained (NT=not tested).

The structures appear in SMILES notation.

T1 sequence (Q9Y5N1 whole entry): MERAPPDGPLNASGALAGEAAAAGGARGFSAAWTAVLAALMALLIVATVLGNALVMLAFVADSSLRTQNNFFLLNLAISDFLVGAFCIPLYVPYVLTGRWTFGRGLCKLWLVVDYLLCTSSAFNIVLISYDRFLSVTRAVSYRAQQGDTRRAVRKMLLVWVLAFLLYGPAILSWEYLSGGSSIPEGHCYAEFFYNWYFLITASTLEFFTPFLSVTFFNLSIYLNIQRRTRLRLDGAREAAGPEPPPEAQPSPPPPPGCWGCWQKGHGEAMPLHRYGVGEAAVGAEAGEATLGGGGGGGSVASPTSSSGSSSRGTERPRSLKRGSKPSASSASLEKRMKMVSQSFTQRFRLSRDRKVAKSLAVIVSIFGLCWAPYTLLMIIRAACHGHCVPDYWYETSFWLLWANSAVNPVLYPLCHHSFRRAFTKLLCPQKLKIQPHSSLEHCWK
T2 sequence (Q9Y5N1 whole entry): as above

Regarding `Cn1cc(CN2CCOCC2)c2ccc(C(=O)N3CCN(C4CCC4)CC3)cc21` [Example 3, (4-Cyclobutyl-piperazin-1-yl)-(1-methyl-3-morpholin-4-ylmethyl-1H-indol-6-yl)-methanone], the affinity in test [1], expressed as Ki, was 1 nM. Also, the Kb in test [2] was 0.501 nM.

`O=C(c1ccc2c(CN3CCOCC3)c[nH]c2c1)N1CCN(C2CCC2)CC1` [Example 6, (4-Cyclobutyl-piperazin-1-yl)-(3-morpholin-4-ylmethyl-1H-indol-6-yl)-methanone] gave a Ki in test [1] of 1 nM. Also, the Kb in test [2] was 0.155 nM. On the same counts, the results for `CC(C)N1CCN(C(=O)c2cccc3c(CN4CCOCC4)c[nH]c23)CC1` [Example 20, (4-Isopropyl-piperazin-1-yl)-(3-morpholin-4-ylmethyl-1H-indol-7-yl)-methanone] are 10 nM and 8.13 nM. On the same counts, the results for `O=C(c1cccc2c(CN3CCCCC3)c[nH]c12)N1CCN(C2CCC2)CC1` [Example 23, (4-Cyclobutyl-piperazin-1-yl)-(3-piperidin-1-ylmethyl-1H-indol-7-yl)-methanone] are 2 nM and 0.575 nM. On the same counts, the results for `CC(C)N1CCN(C(=O)c2ccc3c(CN4CCCCC4)cn(S(C)(=O)=O)c3c2)CC1` [Example 25, (4-Isopropyl-piperazin-1-yl)-(1-methanesulfonyl-3-piperidin-1-ylmethyl-1H-indol-6-yl)-methanone] are 3 nM and 3.09 nM.

`CC(C)N1CCN(C(=O)c2ccc3c(CN4CCCC(CO)C4)c[nH]c3c2)CC1` (stereo not shown) [Example 44, [3-(3-Hydroxymethyl-piperidin-1-ylmethyl)-1H-indol-6-yl]-(4-isopropyl-piperazin-1-yl)-methanone] had a Ki in test [1] of 2 nM. Besides, the Kb in test [2] was 1.07 nM. `CC(C)N1CCN(C(=O)c2ccc3c(CN4CCN(c5ccccc5)CC4)c[nH]c3c2)CC1` [Example 45, (4-Isopropyl-piperazin-1-yl)-[3-(4-phenyl-piperazin-1-ylmethyl)-1H-indol-6-yl]-methanone] came in with a Ki in test [1] of 2 nM. Moreover, in test [2], the Kb is 1.82 nM. On the same counts, the results for `CC(C)N1CCN(C(=O)c2ccc3c(CN4CCC(c5ccccc5)CC4)c[nH]c3c2)CC1` [Example 57, (4-Isopropyl-piperazin-1-yl)-[3-(4-phenyl-piperidin-1-ylmethyl)-1H-indol-6-yl]-methanone] are 1 nM and 1.17 nM. For the compound `O=C(c1ccc2c(CN3CCCN(C4CCC4)CC3)c[nH]c2c1)N1CCC(CO)CC1` [Example 83, [3-(4-Cyclobutyl-[1,4]diazepan-1-ylmethyl)-1H-indol-6-yl]-(4-hydroxymethyl-piperidin-1-yl)-methanone], the Ki in test [1] is 27 nM. As for `CC(C)N1CCCN(Cc2c[nH]c3cc(C(=O)N4CCC(CO)CC4)ccc23)CC1` [Example 84, (4-Hydroxymethyl-piperidin-1-yl)-[3-(4-isopropyl-[1,4]diazepan-1-ylmethyl)-1H-indol-6-yl]-methanone], the Ki in test [1] turned out to be 87 nM. The same measure, in the same setting: with `O=C(c1ccc2c(CN3CCC(N4CCCCC4)CC3)c[nH]c2c1)N1CCC(c2ccccc2)CC1` [Example 85, (3-[1,4′]Bipiperidinyl-1′-ylmethyl-1H-indol-6-yl)-(4-phenyl-piperidin-1-yl)-methanone] the figure was 81 nM; with `O=C(c1ccc2c(CN3CCN(C4CCCC4)CC3)c[nH]c2c1)N1CCC(c2ccccc2)CC1` [Example 86, [3-(4-Cyclopentyl-piperazin-ylmethyl)-1H-indol-6-yl]-(4-phenyl-piperidin-1-yl)-methanone], 27 nM. Still for that read-out and setting: with `CN(C)C1CCN(Cc2c[nH]c3cc(C(=O)N4CCC(c5ccccc5)CC4)ccc23)C1` (stereo not shown) [Example 87, [3-(3-Dimethylamino-pyrrolidin-1-ylmethyl)-1H-indol-6-yl]-(4-phenyl-piperidin-1-yl)-methanone] the figure was 20 nM; with `CN(C)C1CCN(Cc2c[nH]c3cc(C(=O)N4CCC(c5ccccc5)CC4)ccc23)CC1` [Example 88, [3-(4-Dimethylamino-piperidin-1-ylmethyl)-1H-indol-6-yl]-(4-phenyl-piperidin-1-yl)-methanone], 186 nM. Still for that read-out and setting: for `O=C(c1ccc2c(CN3CCCN(C4CCC4)CC3)c[nH]c2c1)N1CCC(c2ccccc2)CC1` [Example 89, [3-(4-Cyclobutyl-[1,4]diazepan-1-ylmethyl)-1H-indol-6-yl]-(4-phenyl-piperidin-1-yl)-methanone] the value was 31 nM. Compound `O=C(c1ccc2c(CN3CCC(N4CCCCC4)CC3)c[nH]c2c1)N1CCCCCC1` [Example 90, Azepan-1-yl-(3-[1,4′]bipiperidinyl-1′-ylmethyl-1H-indol-6-yl)-methanone] returned a Ki in test [1] of 21 nM. The Ki values of the last two compounds are within 1.5-fold of each other. The same measure, in the same setting: with `CN(C)C1CCN(Cc2c[nH]c3cc(C(=O)N4CCCCCC4)ccc23)C1` (stereo not shown) [Example 92, Azepan-1-yl-[3-(3-dimethylamino-pyrrolidin-1-ylmethyl)-1H-indol-6-yl]-methanone] the figure was 15 nM; with `O=C(c1ccc2c(CN3CCN(C4CCC4)CC3)c[nH]c2c1)N1CCCCCC1` [Example 93, Azepan-1-yl-[3-(4-cyclobutyl-piperazin-1-ylmethyl)-1H-indol-6-yl]-methanone], 38 nM; with `CN(C)C1CCN(Cc2c[nH]c3cc(C(=O)N4CCC(CO)CC4)ccc23)C1` (stereo not shown) [Example 94, [3-(3-Dimethylamino-pyrrolidin-1-ylmethyl)-1H-indol-6-yl]-(4-hydroxymethyl-piperidin-1-yl)-methanone], 27 nM. The same measure, in the same setting: for `CC(C)N1CCCN(Cc2c[nH]c3cc(C(=O)N4CCCCCC4)ccc23)CC1` [Example 95, Azepan-1-yl-[3-(4-isopropyl-[1,4]diazepan-1-ylmethyl)-1H-indol-6-yl]-methanone] the value was 42 nM; for `CN(C)C1CCN(Cc2c[nH]c3cc(C(=O)N4CCC(CO)CC4)ccc23)CC1` [Example 96, [3-(4-Dimethylamino-piperidin-1-ylmethyl)-1H-indol-6-yl]-(4-hydroxymethyl-piperidin-1-yl)-methanone], 439 nM; for `CC(C)N1CCCN(Cc2c[nH]c3cc(C(=O)N4CCC(c5ccccc5)CC4)ccc23)CC1` [Example 97, [3-(4-Isopropyl-[1,4]diazepan-1-ylmethyl)-1H-indol-6-yl]-(4-phenyl-piperidin-1-yl)-methanone], 59 nM. Same read-out and setting: with `O=C(c1ccc2c(CN3CCCN(C4CCC4)CC3)c[nH]c2c1)N1CCCCCC1` [Example 98, Azepan-1-yl-[3-(4-cyclobutyl-[1,4]diazepan-1-ylmethyl)-1H-indol-6-yl]-methanone] the figure was 34 nM; with `O=C(c1ccc2c(CN3CCN(C4CCCC4)CC3)c[nH]c2c1)N1CCC(Cc2ccccc2)CC1` [Example 99, (4-Benzyl-piperidin-1-yl)-[3-(4-cyclopentyl-piperazin-1-ylmethyl)-1H-indol-6-yl]-methanone], 28 nM; with `CN(C)C1CCN(Cc2c[nH]c3cc(C(=O)N4CCC(Cc5ccccc5)CC4)ccc23)CC1` [Example 100, (4-Benzyl-piperidin-1-yl)-[3-(4-dimethylamino-piperidin-1-ylmethyl)-1H-indol-6-yl]-methanone], 233 nM.

In test [1], `CN(C)C1CCN(Cc2c[nH]c3cc(C(=O)N4CCC(Cc5ccccc5)CC4)ccc23)C1` (stereo not shown) [Example 101] showed a Ki of 9 nM. This Ki is about 26-fold lower than that of the compound before. `O=C(c1ccc2scc(CN3CCCCC3)c2c1)N1CCN(C2CCC2)CC1` [Example 103, (4-Cyclobutyl-piperazin-1-yl)-(3-piperidin-1-ylmethyl-benzo[b]thiophen-5-yl)-methanone] showed a Ki in test [1] of 7 nM. This Ki and that of the compound before are within 1.5-fold of each other. As for `CC(C)N1CCN(C(=O)c2ccc3scc(C(=O)N4CCCCC4)c3c2)CC1` [Example 104, [5-(4-Isopropyl-piperazine-1-carbonyl)-benzo[b]thiophen-3-yl]-piperidin-1-yl-methanone], the Ki in test [1] is 772 nM. In test [1], `O=C(c1ccc2scc(C(=O)N3CCCCC3)c2c1)N1CCN(C2CCC2)CC1` [Example 105, [5-(4-Cyclobutyl-piperazine-1-carbonyl)-benzo[b]thiophen-3-yl]-piperidin-1-yl-methanone] registered a Ki of 215 nM. On the same count and under the same terms, with `O=C(c1ccc2c(CN3CCC(N4CCCCC4)CC3)c[nH]c2c1)N1CCC(Cc2ccccc2)CC1` [Example 106, (4-Benzyl-piperidin-1-yl)-(3-[1,4′]bipiperidinyl-1′-ylmethyl-1H-indol-6-yl)-methanone] the figure was 70 nM; with `O=C(c1ccc2c(CN3CCN(C4CCC4)CC3)c[nH]c2c1)N1CCC(Cc2ccccc2)CC1` [Example 107, (4-Benzyl-piperidin-1-yl)-[3-(4-cyclobutyl-piperazin-1-ylmethyl)-1H-indol-6-yl]-methanone], 12 nM; with `O=C(c1ccc2c(CN3CCCN(C4CCC4)CC3)c[nH]c2c1)N1CCC(Cc2ccccc2)CC1` [Example 108, (4-Benzyl-piperidin-1-yl)-[3-(4-cyclobutyl-[1,4]diazepan-1-ylmethyl)-1H-indol-6-yl]-methanone], 16 nM.

By Ki is commonly meant the equilibrium dissociation constant of an inhibitor or competing ligand from its target.
